The subject of one series is RS4;11-BCL-2 G101V cells. Nature of the series: Cell proliferation assay (MTS), RS4;11-BCL-2 G101V engineered cells. In kind it is cell-based. The following applies: Homo sapiens, 120 h, read-out: RS4, 11 BCL2-G101V IC50. The procedure, abridged: (§1)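 Cells were plated, allowed to settle 4 h (G101V, F104L) or 24 h (D103E, D103Y), and treated with serially diluted compound (10000 down to 1.5 nM). After 120 h or 72 h respectively at 37 °C, MTS was added for 2 h and absorbance at 490 nm gave IC50 values.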

Another series has as its system RS4;11-BCL-2 D103Y cells. The series can be described thus: Cell proliferation assay (MTS), RS4;11-BCL-2 D103Y engineered cells. In kind it is cell-based. The following applies: Homo sapiens, 72 h, read-out: RS4, 11 BCL2-D103Y IC50. From the text:
MTS testing kit was purchased from Promega (Madison, WI, USA). The RPMI-1640, Fetal bovine serum and Penicillin-Streptomycin were purchased from BI (Biological Industries, Beit Haemek, Israel). Puromycin was purchased from Beyotime (shanghai, China). Dimethyl sulfoxide (DMSO) was purchased from Sigma (St. Louis., MO, USA). RS4;11-BCL-2 G101V (Cobioer Lot. #: CBD2021063013P4), RS4;11-BCL-2 D103E (Cobioer Lot. #: CBD2021063013P4), RS4;11-BCL-2 D103Y (Cobioer Lot. #: CBD2022012101P4) and RS4;11-BCL-2 F104L (Cobioer Lot. #: CBD2021063014P4) cells were cultured in RPMI1640 supplemented with 1 ug/mL puromycin, 100 U/mL Penicillin-Streptomycin and 10% FBS.
To investigate whether a compound is able to inhibit the activity of BCL-2 mutation in cells, a mechanism-based assay using engineered cell lines stably overexpressing BCL-2 mutation (RS4;11-BCL-2 G101V, RS4;11-BCL-2 D103E, RS4;11-BCL-2 D103Y, and RS4;11-BCL-2 F104L) was developed. In this assay, the inhibition of BCL-2 mutation was reflected by the inhibition of cell proliferation of engineered RS4;11 cells. Cells were plated into 96-well plates at optimized cell density (RS4;11-BCL-2 G101V: 5000 cells/well; RS4;11-BCL-2 D103E: 7500 cells/well; RS4;11-BCL-2 D103Y: 7500 cells/well; RS4;11-BCL-2 F104L: 5000 cells/well). Plates were incubated at 37° C., with 5% CO2 for 4 h (RS4;11-BCL-2 G101V, RS4;11-BCL-2 F104L) and 24 h (RS4;11-BCL-2 D103E, RS4;11-BCL-2 D103Y), respectively. Compounds were serially diluted and added to the plates with the final concentrations of 10000, 3333.3, 1111.1, 370.4, 123.5, 41.2, 13.7, 4.6 and 1.5 nM. Plates were incubated at 37° C., with 5% CO2 for 120 h (RS4; 11-BCL-2 G101V, RS4; 11-BCL-2 F104L) and 72 h (RS4;11-BCL-2 D103E, RS4;11-BCL-2 D103Y), respectively. 20 μl MTS was added into each well and the plates were incubated at 37° C., with 5% CO2 exactly for 2 h. The absorbance was measured by a microplate reader at 490 nm. IC50 values were calculated using GraphPad Prism 8.0 software.

The subject of another series is RS4;11-BCL-2 D103E cells. The series can be described thus: Cell proliferation assay (MTS), RS4;11-BCL-2 D103E engineered cells. The class given is cell-based. The following applies: Homo sapiens, 72 h, read-out: RS4, 11 BCL2-D103E IC50. Summed up:
as §1

The nature of series [1]: Pharmacokinetics assay in rats. The class given is in vivo. The note with it: rat, male Sprague-Dawley rats, po, 5 mg/kg, plasma; for Cmax: read-out: Cmax/C0. As for the experimental part: The purpose of this study was to determine the pharmacokinetics of Examples in male Sprague-Dawley rats (Supplied by Beijing Vital River Laboratory Animal Technology Co., Ltd.) following a single intravenous bolus injection at 1 mg/kg and oral gavage (PO) administration at 5 mg/kg.
Animals in Group 1 were administered with Examples by single intravenous bolus injection at 1 mg/kg, which was formulated in 10% DMSO (Sigma, Batch #LPCOS181): 60% PEG400 (Sigma, Batch #MKCH6281): 30% water, pH 5-6 at 1 mg/mL as a solution. Animals in Group 2 were administered with Examples by single oral gavage (PO) administration at 5 mg/kg, which was formulated in 10% DMSO (Sigma, Batch #BCCD6641): 60% PEG400 (Sigma, Batch #MKCL4921): 30% water at 1 mg/mL as a solution. Blood samples were collected at 0.083, 0.25, 0.5, 1, 2, 4, 8, 12 and 24 hours post-dose. Concentrations of Examples in plasma were determined by LC/MS/MS (LC: Waters UPLC; MS: Triple Quad 6500 plus).

The subject of a further series is Toledo cells. The series can be described thus: Cell proliferation assay (MTS), Toledo cells. In kind it is cell-based. The note with it: Homo sapiens, 72 h. The procedure, abridged:
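Toledo cells (RPMI-1640, 10% FBS) seeded at 30000 cells/well, rested 4 h, then exposed 72 h at 37 °C, 5% CO2 to compound at nine final concentrations, 1.5–10000 nM. Viability by MTS (2 h), absorbance at 490 nm. IC50 from the concentration-response.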

The subject of another series is RS4;11-BCL-2 F104L cells. Nature of the series: Cell proliferation assay (MTS), RS4;11-BCL-2 F104L engineered cells. In kind it is cell-based. The note with it: Homo sapiens, 120 h, read-out: RS4, 11 BCL2-F104L IC50. The procedure, abridged:
as §1

pIC50: −log10 of the molar value.

As a reminder, the pIC50 is the negative decadic logarithm of the IC50, by convention in mol/L. Regarding `COc1cc(CN2CCN(C3CC4(CCN(c5ccc(C(=O)NS(=O)(=O)c6cnc(NC[C@H]7CC[C@](C)(O)CC7)c([N+](=O)[O-])c6)c(Oc6cc7c(F)c[nH]c7nc6OC)c5)CC4)C3)[C@H](c3ccccc3C(C)C)C2)cc(O)n1` [Example 69, 2-((3-fluoro-6-methoxy-1H-pyrrolo[2,3-b]pyridin-5-yl)oxy)-N-((6-((((1r,4r)-4-hydroxy-4-methylcyclohexyl)methyl)amino)-5-nitropyridin-3-yl)sulfonyl)-4-(2-((R)-4-((2-hydroxy-6-methoxypyridin-4-yl)methyl)-2-(2-isopropylphenyl)piperazin-1-yl)-7-azaspiro[3.5]nonan-7-yl)benzamide], the pIC50 in the series with RS4;11-BCL-2 G101V cells and in the series with RS4;11-BCL-2 D103Y cells was 9.00 in each case.
Turning to `COc1nc2[nH]cc(F)c2cc1Oc1cc(N2CCC3(CC2)CC(N2CCN(Cc4ccnc5c4CCO5)C[C@H]2c2ccccc2C(C)C)C3)ccc1C(=O)NS(=O)(=O)c1cnc(NC[C@H]2CC[C@](C)(O)CC2)c([N+](=O)[O-])c1` [Example 190, 4-(2-((R)-4-((2,3-dihydrofuro[2,3-b]pyridin-4-yl)methyl)-2-(2-isopropylphenyl)piperazin-1-yl)-7-azaspiro[3.5]nonan-7-yl)-2-((3-fluoro-6-methoxy-1H-pyrrolo[2,3-b]pyridin-5-yl)oxy)-N-((6-((((1r,4r)-4-hydroxy-4-methylcyclohexyl)methyl)amino)-5-nitropyridin-3-yl)sulfonyl)benzamide], the pIC50 was 8.10 in the series with RS4;11-BCL-2 D103Y cells and 9.00 with RS4;11-BCL-2 D103E cells.
For `COc1nc2[nH]cc(F)c2cc1Oc1cc(N2CCC3(CC2)CC(N2CCN(Cc4ccnc5c4NCCO5)C[C@H]2c2ccccc2C(C)C)C3)ccc1C(=O)NS(=O)(=O)c1cnc(NC[C@H]2CC[C@](C)(O)CC2)c([N+](=O)[O-])c1` [Example 192, 4-(2-((R)-4-((2,3-dihydro-1H-pyrido[2,3-b][1,4]oxazin-8-yl)methyl)-2-(2-isopropylphenyl)piperazin-1-yl)-7-azaspiro[3.5]nonan-7-yl)-2-((3-fluoro-6-methoxy-1H-pyrrolo[2,3-b]pyridin-5-yl)oxy)-N-((6-((((1r,4r)-4-hydroxy-4-methylcyclohexyl)methyl)amino)-5-nitropyridin-3-yl)sulfonyl)benzamide], in that order: 9.00 and 9.00.
Broadly, the AUC(0-t) is the area under the concentration-time curve up to a stated or last time point. A high value points to high exposure. One may read the half-life as the time in which the quantity being followed falls by half. Lower therefore signals rapid decline. Molecule `COc1cc(CN2CCN(C3CC4(CCN(c5ccc(C(=O)NS(=O)(=O)c6cnc(NC[C@H]7CC[C@](C)(O)CC7)c([N+](=O)[O-])c6)c(Oc6cc7c(F)c[nH]c7nc6OC)c5)CC4)C3)[C@H](c3ccccc3C(C)C)C2)ccn1` [Example 242, 2-((3-fluoro-6-methoxy-1H-pyrrolo[2,3-b]pyridin-5-yl)oxy)-N-((6-((((1r,4r)-4-hydroxy-4-methylcyclohexyl)methyl)amino)-5-nitropyridin-3-yl)sulfonyl)-4-(2-((R)-2-(2-isopropylphenyl)-4-((2-methoxypyridin-4-yl)methyl)piperazin-1-yl)-7-azaspiro[3.5]nonan-7-yl)benzamide] registered an AUC(0-t) in series [1] of 2760 ng·h/mL. Also, the half-life in series [1] was 7.02 h. Moreover, in series [1], the Cmax turned out to be 272 ng/mL. The pIC50 in the series on Toledo cells, in the series with RS4;11-BCL-2 G101V cells, in the series with RS4;11-BCL-2 F104L cells and in the series with RS4;11-BCL-2 D103E cells was 9.00 throughout.
In series [1], `COc1nc2[nH]cc(F)c2cc1Oc1cc(N2CCC3(CC2)CC(N2CCN(Cc4ccc(OC)c5oc(C)cc45)C[C@H]2c2ccccc2C(C)C)C3)ccc1C(=O)NS(=O)(=O)c1cnc(NC[C@H]2CC[C@](C)(O)CC2)c([N+](=O)[O-])c1` [Example 13, 2-((3-fluoro-6-methoxy-1H-pyrrolo[2,3-b]pyridin-5-yl)oxy)-N-((6-((((1r,4r)-4-hydroxy-4-methylcyclohexyl)methyl)amino)-5-nitropyridin-3-yl)sulfonyl)-4-(2-((R)-2-(2-isopropylphenyl)-4-((7-methoxy-2-methylbenzofuran-4-yl)methyl)piperazin-1-yl)-7-azaspiro[3.5]nonan-7-yl)benzamide] yielded an AUC(0-t) of 1890 ng·h/mL. In series [1], this molecule gave a half-life of 11.3 h. Moreover, the Cmax in series [1] came out at 198 ng/mL. Also, the pIC50 in the series with Toledo cells, with RS4;11-BCL-2 G101V cells, in the series on RS4;11-BCL-2 F104L cells and with RS4;11-BCL-2 D103E cells was 9.00 each time.
Turning to `COc1nc2[nH]cc(F)c2cc1Oc1cc(N2CCC3(CC2)CC(N2CCN(Cc4ccnc5c4NCC(C)O5)C[C@H]2c2ccccc2C(C)C)C3)ccc1C(=O)NS(=O)(=O)c1cnc(NC[C@H]2CC[C@](C)(O)CC2)c([N+](=O)[O-])c1` (stereo partly drawn) [Example 195, 2-((3-fluoro-6-methoxy-1H-pyrrolo[2,3-b]pyridin-5-yl)oxy)-N-((6-((((1r,4r)-4-hydroxy-4-methylcyclohexyl)methyl)amino)-5-nitropyridin-3-yl)sulfonyl)-4-(2-((2R)-2-(2-isopropylphenyl)-4-((3-methyl-2,3-dihydro-1H-pyrido[2,3-b][1,4]oxazin-8-yl)methyl)piperazin-1-yl)-7-azaspiro[3.5]nonan-7-yl)benzamide], in the series with RS4;11-BCL-2 D103Y cells, the pIC50 is 8.10.
`COc1nc2[nH]cc(F)c2cc1Oc1cc(N2CCC3(CC2)CC(N2CCN(Cc4ccc(C5CC5)c(OC)n4)C[C@H]2c2ccccc2C(C)C)C3)ccc1C(=O)NS(=O)(=O)c1cnc(NC[C@H]2CC[C@](C)(O)CC2)c([N+](=O)[O-])c1` [Example 289, 4-(2-((R)-4-((5-cyclopropyl-6-methoxypyridin-2-yl)methyl)-2-(2-isopropylphenyl)piperazin-1-yl)-7-azaspiro[3.5]nonan-7-yl)-2-((3-fluoro-6-methoxy-1H-pyrrolo[2,3-b]pyridin-5-yl)oxy)-N-((6-((((1r,4r)-4-hydroxy-4-methylcyclohexyl)methyl)amino)-5-nitropyridin-3-yl)sulfonyl)benzamide] registered an area under the curve AUC(0-t) in series [1] of 3450 ng·h/mL. The molecule also showed a half-life in series [1] of 8.1 h. Moreover, the Cmax in series [1] was 357 ng/mL. The pIC50 is 9.00 with Toledo cells, 8.70 in the series on RS4;11-BCL-2 G101V cells, 9.00 in the series with RS4;11-BCL-2 F104L cells and 9.00 in the series with RS4;11-BCL-2 D103E cells.

Source of the values: patent US20250122191A1, “COMPOUNDS AS BCL-2 INHIBITORS” (Fochon Biosciences, Ltd, priority 2021, published 2025).
